Data taken from US8835125B2, “Methods and compositions for selective labeling of different biotinylated targets within multicolor or multilabel assays” (Affymetrix, Inc., priority 2011, dated 2014).

Assays:
streptavidin = streptavidin (Streptomyces avidinii, UniProt P22629); details: association constant; cited from earlier work
SAPE [1] = target: T1, SAPE (Streptomyces avidinii, UniProt P22629); experiment: stability of DMT protected biotin against SAPE staining after 3 hour ligation (FIG. 13); details: array probes after 3 hours ligation reaction, no acid treatment
T1 sequence (P22629 25-183): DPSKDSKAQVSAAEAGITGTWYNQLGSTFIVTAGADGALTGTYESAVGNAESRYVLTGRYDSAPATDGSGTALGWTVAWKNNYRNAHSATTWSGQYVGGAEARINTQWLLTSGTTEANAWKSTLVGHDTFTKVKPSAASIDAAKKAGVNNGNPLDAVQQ

SAPE [2] = target: T1, SAPE; experiment: displacement of SAPE from desthiobiotin by biotin solution and re-staining (FIG. 15); format: binding; details: 1 mM biotin solution, then restaining with SAPE
Procedure: The next step was to displace the streptavidin-phycoerythrin conjugate bound to the desthiobiotin of the ligated A/T probes. This was done by washing the array with solution biotin (1 mM) in NaCl (150 mM) for 4 hours at room temperature. The displaced streptavidin-phycoerythrin conjugate previous bound to the desthiobiotinylated probes was then removed.
FIGS. 15(A)-15(C) contain images of sub-regions with sets of probes to test the effectiveness of binding and displacement of desthiobiotin with biotin. Specifically, the probe sets within the images are ligated with desthiobiotin labeled probes. […] Washing was also performed to remove the displaced biotin-SAPE conjugate. FIG. 15(C) contains an image after subsequent restraining with SAPE.

Sequence of streptavidin (P22629 25-183, species assumed): as the sequence (P22629 25-183) above

In the case of `O=C(O)CCCC[C@@H]1SC[C@@H]2NC(=O)N[C@@H]21` [biotin], the “binding affinity with streptavidin” value (streptavidin) is given as 1e+15 M⁻¹ and the “intensity after SAPE staining” value (SAPE [1]) is given as “extremely strong”.
For `C[C@@H]1NC(=O)N[C@@H]1CCCCCC(=O)O` [desthiobiotin], the “binding affinity with streptavidin” value (streptavidin) is listed as 5e+13 M⁻¹ and the “displacement of SAPE stain and re-staining” value (SAPE [2]) is listed as “effectively displace and remove a labeling stain from desthiobiotin”.
